Source: PubChem BioAssay (NCI)
“And” between values parts separate entries of the source, which are not always exact repeats. Equal values may be shown once.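 All cell lines were grown in 96-well plates and treated with compound for 48 hours. GI50 marks 50% less growth. Definition used: TGI = concentration required for complete inhibition of growth.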

How the values were obtained:
Assay in all cases: NCI-60 cell line screen, 48 h
EKVX NSCLC = test system: EKVX NSCLC
SK-OV-3 ovarian = test system: SK-OV-3 ovarian
OVCAR-5 ovarian = test system: OVCAR-5 ovarian
HOP-92 NSCLC = test system: HOP-92 NSCLC
HCC-2998 colon = test system: HCC-2998 colon
CAKI-1 renal = test system: CAKI-1 renal
786-0 renal = test system: 786-0 renal
SK-MEL-28 melanoma = test system: SK-MEL-28 melanoma
SR leukemia = test system: SR leukemia
LOX IMVI melanoma = test system: LOX IMVI melanoma

Compound	GI50 (EKVX NSCLC) [µM]	TGI (EKVX NSCLC)	GI50 (SK-OV-3 ovarian) [µM]	TGI (SK-OV-3 ovarian)	GI50 (OVCAR-5 ovarian) [µM]	TGI (OVCAR-5 ovarian)	GI50 (HOP-92 NSCLC) [µM]	TGI (HOP-92 NSCLC)	GI50 (HCC-2998 colon) [µM]	TGI (HCC-2998 colon)	GI50 (CAKI-1 renal) [µM]	TGI (CAKI-1 renal)	GI50 (786-0 renal) [µM]	TGI (786-0 renal)	GI50 (SK-MEL-28 melanoma) [µM]	TGI (SK-MEL-28 melanoma)	GI50 (SR leukemia) [µM]	TGI (SR leukemia)	GI50 (LOX IMVI melanoma) [µM]	TGI (LOX IMVI melanoma)
CCCCCCn1c2c(c3c(O)cccc31)C(=O)c1ccccc1-2	20.1	43.5 µM	36.3	> 100 µM	18.6	32.8 µM	17.6	33.2 µM	15.7	29.4 µM	26.9	63.8 µM	17.1	32.4 µM	35.9	> 100 µM	26	> 100 µM	18.1	33.8 µM
C/C(CC(=O)Nc1cccc(C)c1C)=N\NC(N)=S	–	> 100 µM	–	> 100 µM	–	> 100 µM	–	> 100 µM	–	> 100 µM	–	> 100 µM	–	> 100 µM	–	> 100 µM	–	56.5 µM	–	> 100 µM
O=C1Nc2c(ccc(Cl)c2Cl)/C1=C\c1cc(C(F)(F)F)cc(C(F)(F)F)c1	1.93	11.2 µM	9.28	27.2 µM	4.26	11.4 µM	1.44	7.42 µM	7.71	14.9 µM	0.399	7.85 µM	4.29	10.4 µM	2.1	7.61 µM	0.392	1.9 µM	1.12	3.69 µM
CS(=O)(=O)c1ccc(-c2cnc(NCc3ccco3)n3cnnc23)cc1	> 100	> 100 µM	> 100	> 100 µM	> 100	> 100 µM	21.4	> 100 µM	> 100	> 100 µM	> 100	> 100 µM	> 100	> 100 µM	25.3	> 100 µM	> 100	> 100 µM	60.1	> 100 µM
O=C(c1ccccc1)c1c2n(c3c1cc(O)c1ccccc13)CCN2	8.63	22.5 µM	11.1	25.2 µM	0.72	7.91 µM	2.63	9.36 µM	6.11	18.9 µM	11.1	52.5 µM	9.23	31.2 µM	12.1	27.3 µM	1.06	3.46 µM	2.7	6.87 µM
Cc1ccc(S(=O)(=O)OC2CSSCC2OS(=O)(=O)c2ccc(C)cc2)cc1 (centres undefined)	–	50 µM	–	38.4 µM	–	38 µM	–	23.7 µM	–	35.5 µM	–	26.1 µM	–	25.1 µM	–	30.3 µM	–	38.8 µM	–	28.5 µM
O=C(NCCCl)NCc1ccccc1	–	> 100 µM	–	> 100 µM	–	> 100 µM	–	> 100 µM	–	> 100 µM	–	> 100 µM	–	> 100 µM	–	> 100 µM	–	> 100 µM	–	> 100 µM
CNC(=O)c1cc(Oc2ccc3nc(NC(=O)Nc4cc(C(F)(F)F)cc(C(F)(F)F)c4)sc3c2)ccn1	1.28	4.56 µM	1.43	3.18 µM	1.55	3.52 µM	0.301	0.949 µM	1.33	3.23 µM	1.15	2.69 µM	1.42	2.86 µM	1.29	2.93 µM	0.514	2.6 µM	1.21	2.53 µM
CC/C(=C(/CC)c1ccc(O)cc1)c1ccc(O)cc1	5.66	34.7 µM	3.63	13 µM	14.1	30.1 µM	5.1	17.2 µM	10.7	23.3 µM	4.22	27.8 µM	5.59	18.6 µM	6.96	19.9 µM	3.98	29.6 µM	5.75	19.4 µM
Cc1ccnc(NC(c2ccccc2)c2ccc3cccnc3c2O)c1 (centres undefined)	2.64	15.8 µM	4.36	> 100 µM	8.86	> 100 µM	2.11	8.95 µM	7.12	> 100 µM	1.68	7.17 µM	2.93	35.1 µM	13.8	> 100 µM	2.7	> 100 µM	3.29	34.2 µM
COc1c(OC)c(OC)c(-c2cc(=O)c3c(OC)c(OC)c(OC)c(OC)c3o2)c(OC)c1OC	–	> 100 µM	–	> 100 µM	–	> 100 µM	–	44.9 µM	–	> 100 µM	–	> 100 µM	–	37 µM	–	> 100 µM	–	> 100 µM	–	> 100 µM
COc1ccc(/C=C/C(=O)c2ccccc2)cc1OC	17.7	28.7 µM and 35.6 µM	37.8	29.5 µM and > 100 µM	21.4	33.5 µM and 44.1 µM	26.3	41 µM and 79.4 µM	14.2	33.2 µM and 28.6 µM	14.1	38.2 µM and 35.6 µM	14.6	17.9 µM and 33.7 µM	17.6	38.1 µM and 32 µM	–	> 100 µM and 58.3 µM	3.32	28.1 µM and 14.6 µM
[Au+].c1c[n-]cn1.c1ccc([PH+](c2ccccc2)c2ccccc2)cc1	11	38.2 µM	16.8	30.4 µM	20.9	42.3 µM	2.36	4.79 µM	13.8	30.5 µM	4.69	16.4 µM	1.66	3.04 µM	2.29	6.87 µM	2.54	9.48 µM	4.03	15.2 µM
